Results taken from patent US20230286973A1, “PROTEIN SECRETION INHIBITORS” (KEZAR LIFE SCIENCES, priority 2020, published 2023).
“And” between values parts separate entries of the source, which are not always exact repeats. Equal entries are not always repeated. Where two headings read alike, the source gives them in different places.

Legend:
[1] = tested on: PD1-ss+10aa/Gaussia Luciferase; test: Dox-Induced PD1-ss-Gluc Assay; format: cell-based; settings: 24 hr Dox induction, 293FRT/TO cells, read-out: 24 hr Dox Inducible PD1ssGluc 293FRT/TO: Mean IC50
Source text: Flp-In 293 T-REx™ cells were transfected with pcDNA™5/FRT/TO plasmid inserted with cDNA encoding Gaussia Luciferase fused to the 3′ end of cDNA encoding PD1 signal sequence plus 10 amino acids (N-[…]-C) (SEQ ID NO: 1). Transfected cells were selected for resistance to the selectable markers Hygromycin and Blasticidin to create a stable cell line that contained the PD1-ss+10aa/Gaussia Luciferase cDNA insert whose expression was regulated under the T-REx™ system. The day before assay, cells were trypsinized and plated in 384-well tissue culture plates. The next day, compound dilutions in DMSO/media containing doxycycline were added to the wells and incubated at 37° C., 5% CO2.
(§1) For chemical structures that include one or more stereoisomers, but are illustrated without indicating stereochemistry, the assay data refers to a mixture of stereoisomers.

[2] = tested on: IL-2-FL/Gaussia Luciferase; test: Dox Induced IL2-FL-Gluc Assay; format: cell-based; settings: for IC50: 24 hr Dox induction, 293FRT/TO cells, read-out: 24 hr Dox Inducible IL2FLGluc 293FRT/TO: Mean IC50; for 24 hr Dox Inducible IL2FLGluc 293FRT/TO: IL2/PD1: ratio of IL2FLGluc IC50 to PD1ssGluc IC50
Source text: (§2) Flp-In 293 T-REx™ cells were transfected with pcDNA™5/FRT/TO plasmid inserted with cDNA encoding Gaussia Luciferase fused to the 3′ end of cDNA encoding full length IL-2 (amino acids 1-153). Transfected cells were selected for resistance to the selectable markers Hygromycin and Blasticidin to create a stable cell line that contained the IL-2-FL/Gaussia Luciferase cDNA insert whose expression was regulated under the T-REx™ system. The day before assay, cells were trypsinized and plated in 384-well tissue culture plates. The next day, compound dilutions in DMSO/media containing doxycycline were added to the wells and incubated at 37° C., 5% CO2.
as §1

[3] = tested on: multiple myeloma cell line NCI-H929; test: H929 Cell Viability Assay; format: cell-based, human; settings: NCI-H929 cells, Celltiter-Glo
Experimental: The human multiple myeloma cell line NCI-H929 was cultured in Advanced RPMI 1640 media (Gibco®) supplemented with 6% fetal bovine serum, 2 mM Glutamine, and 1× Penicillin/Streptomycin. On the day of assay, cells were resuspended in RPMI 1640 media supplemented with 10% fetal bovine serum, 2 mM Glutamine, and 1× Penicillin/Streptomycin and plated in 384-well tissue culture plates and treated with compound dilutions in DMSO/media. Plates were incubated at 37° C., 5% CO2 for 48 hours. After 48 hours, Celltiter-Glo® (Promega) was added to each well and luciferase signal was quantified using Tecan Infinite M1000 Pro for cell viability determination.
as §1

[4] = tested on: multiple myeloma cell line U266B1; test: U266 Cell Viability Assay; format: cell-based, human; settings: Homo sapiens, U-266, 48 h, U266B1 cells, Celltiter-Glo
Experimental: The human multiple myeloma cell line U266B1 was cultured in RPMI 1640 media supplemented with 10% fetal bovine serum, 2 mM Glutamine, and 1× Penicillin/Streptomycin. Cells were plated in 384-well tissue culture plates and treated with compound dilutions in DMSO/media. Plates were incubated at 37° C., 5% CO2 for 48 hours. After 48 hours, Celltiter-Glo® (Promega) was added to each well and luciferase signal was quantified using Tecan Infinite M1000 Pro for cell viability determination.
as §1

[5] = Liver Microsome Stability Assay (rat); settings: rat liver microsomes, with NADPH, 1.0 uM compound
Experimental: (§3) Stability of a compound was assessed in the presence of liver microsomes from various sources—mouse, rat, monkey and human liver microsomes. 1.0 uM compound, 0.4% DMSO in 0.1 M Potassium Phosphate with 1.0 mg/mL liver microsomes, were incubated at 37° C. with or without 1 mM NADPH. The samples were quenched at 0, and 30 minutes.

[6] = Liver Microsome Stability Assay (mouse); settings: mouse liver microsomes, with NADPH, 1.0 uM compound
Experimental: as §3

[7] = Liver Microsome Stability Assay (human); settings: human liver microsomes, with NADPH, 1.0 uM compound
Experimental: as §3

[8] = Liver Microsome Stability Assay (monkey); settings: monkey liver microsomes, with NADPH, 1.0 uM compound
Experimental: as §3

[9] = tested on: TNFα-FL/Gaussia Luciferase; test: Dox Induced TNFα-FL-Gluc Assay; format: cell-based
Source text: as §2, with “TNFα” for “IL-2”, “1-233).” for “1-153).”, “TNFα-FL/Gaussia” for “IL-2-FL/Gaussia”
as §1

[10] = '<=>' given where both are I.A.

In the case of `O=C(Nc1nc([C@H]2CCCN2c2ccc(-c3ncco3)cc2)cs1)c1cccn1Cc1ccncc1` [Compound A9, (R)-N-(4-(1-(4-(oxazol-2-yl)phenyl)pyrrolidin-2-yl)thiazol-2-yl)-1-(pyridin-4-ylmethyl)-1H-pyrrole-2-carboxamide], the IC50 [1] is reported as 0.00722 µM, the IC50 [2] is reported as 0.0171 µM and the “24 hr Dox Inducible IL2FLGluc 293FRT/TO: IL2/PD1” value [2] is reported as 2.4. For the same compound, the EC50 ([3]; Homo sapiens, NCI-H929, 48 h) was 0.519 µM, the EC50 [4] was greater than 25 µM and the “Liver Microsome Stability (Multiple Species): Rat - % Remaining after 30 min w/NADPH” value [5] was 0.8%. The “Liver Microsome Stability (Multiple Species): Mouse - % Remaining after 30 min w/NADPH” value [6] was 19.8%, the “Liver Microsome Stability (Multiple Species): Human - % Remaining after 30 min w/NADPH” value [7] was 0.71% and the “Liver Microsome Stability (Multiple Species): Monkey - % Remaining after 30 min w/NADPH” value [8] was 0.23%.
For `O=C(O)c1ccc(N2CCC[C@@H]2c2csc(NC(=O)c3cccn3Cc3ccncc3)n2)cc1` [Compound A13], the IC50 [1] was 20.7 µM, the IC50 [2] was greater than 25 µM and the “24 hr Dox Inducible IL2FLGluc 293FRT/TO: IL2/PD1” value [2] was greater than 1.2. For the same compound, the EC50 ([3]; Homo sapiens, NCI-H929, 48 h) was greater than 25 µM, the EC50 [4] was greater than 25 µM and the “Liver Microsome Stability (Multiple Species): Rat - % Remaining after 30 min w/NADPH” value [5] was 5.37%. For the same compound, the “Liver Microsome Stability (Multiple Species): Mouse - % Remaining after 30 min w/NADPH” value [6] was 6.8%, the “Liver Microsome Stability (Multiple Species): Human - % Remaining after 30 min w/NADPH” value [7] was 1.91% and the “Liver Microsome Stability (Multiple Species): Monkey - % Remaining after 30 min w/NADPH” value [8] was 0.39%.
For `CC1=NC(C)(/C=C/c2csc(NC(=O)c3cccn3Cc3ccncc3)n2)CO1` (centres unmarked) [Compound B16], the IC50 [1] was 3.99 µM, the IC50 [2] was greater than 25 µM and the “24 hr Dox Inducible IL2FLGluc 293FRT/TO: IL2/PD1” value [2] was greater than 6.3. The EC50 ([3]; Homo sapiens, NCI-H929, 48 h) was greater than 25 µM, the EC50 [4] was greater than 25 µM and the “Liver Microsome Stability (Multiple Species): Rat - % Remaining after 30 min w/NADPH” value [5] was 137%. The “Liver Microsome Stability (Multiple Species): Mouse - % Remaining after 30 min w/NADPH” value [6] was 196% and the “Liver Microsome Stability (Multiple Species): Monkey - % Remaining after 30 min w/NADPH” value [8] was 110%.
`O=C(Nc1nc([C@H]2CCCN2c2ccccc2)cs1)c1cccn1CC1CCC(F)(F)CC1` [Compound C21, (R)-1-((4,4-difluorocyclohexyl)methyl)-N-(4-(1-phenylpyrrolidin-2-yl)thiazol-2-yl)-1H-pyrrole-2-carboxamide] gave an IC50 ([1]; mean) greater than 25 µM, an IC50 ([2]; mean) greater than 25 µM and an EC50 ([3]; Homo sapiens, NCI-H929, 48 h) greater than 25 µM. The EC50 [4] was greater than 25 µM, the “Liver Microsome Stability (Multiple Species): Rat - % Remaining after 30 min w/NADPH” value [5] was 12.2% and the “Liver Microsome Stability (Multiple Species): Mouse - % Remaining after 30 min w/NADPH” value [6] was 60.5%. For the same compound, the “Liver Microsome Stability (Multiple Species): Human - % Remaining after 30 min w/NADPH” value [7] was 64% and the “Liver Microsome Stability (Multiple Species): Monkey - % Remaining after 30 min w/NADPH” value [8] was 49%.
With `O=C(Nc1nc([C@H]2CCCN2c2ccccc2)cs1)c1cccn1CCCc1c[nH]nn1` [Compound C27, (R)-1-(3-(1H-1,2,3-triazol-5-yl)propyl)-N-(4-(1-phenylpyrrolidin-2-yl)thiazol-2-yl)-1H-pyrrole-2-carboxamide] the IC50 ([1]; mean) was 0.671 µM, the IC50 ([2]; mean) was 2.63 µM and the “24 hr Dox Inducible IL2FLGluc 293FRT/TO: IL2/PD1” value [2, 10] was 3.9. For the same compound, the EC50 ([3]; Homo sapiens, NCI-H929, 48 h) was 23.9 µM, the EC50 [4] was greater than 25 µM and the “Liver Microsome Stability (Multiple Species): Rat - % Remaining after 30 min w/NADPH” value [5] was 1.26%. For the same compound, the “Liver Microsome Stability (Multiple Species): Mouse - % Remaining after 30 min w/NADPH” value [6] was 4.86%, the “Liver Microsome Stability (Multiple Species): Human - % Remaining after 30 min w/NADPH” value [7] was 3.25% and the “Liver Microsome Stability (Multiple Species): Monkey - % Remaining after 30 min w/NADPH” value [8] was 3.74%.
In the case of `O=C(Nc1nc([C@H]2CCCN2c2ccccc2)cs1)c1cccn1Cc1cnn[nH]1` [Compound C29, (R)-1-((1H-1,2,3-triazol-5-yl)methyl)-N-(4-(1-phenylpyrrolidin-2-yl)thiazol-2-yl)-1H-pyrrole-2-carboxamide], the IC50 ([1]; mean) is reported as 4.89 µM, the IC50 ([2]; mean) is reported as greater than 25 µM and the “24 hr Dox Inducible IL2FLGluc 293FRT/TO: IL2/PD1” value [2, 10] is reported as greater than 5.1. The EC50 ([3]; Homo sapiens, NCI-H929, 48 h) was greater than 25 µM, the EC50 [4] was greater than 25 µM and the “Liver Microsome Stability (Multiple Species): Rat - % Remaining after 30 min w/NADPH” value [5] was 17%. The “Liver Microsome Stability (Multiple Species): Mouse - % Remaining after 30 min w/NADPH” value [6] was 37.5%, the “Liver Microsome Stability (Multiple Species): Human - % Remaining after 30 min w/NADPH” value [7] was 46.1% and the “Liver Microsome Stability (Multiple Species): Monkey - % Remaining after 30 min w/NADPH” value [8] was 41.9%.
In the case of `C#CCCCCn1cccc1C(=O)Nc1nc([C@H]2CCCN2c2ccccc2)cs1` [Compound C30, (R)-1-(hex-5-yn-1-yl)-N-(4-(1-phenylpyrrolidin-2-yl)thiazol-2-yl)-1H-pyrrole-2-carboxamide], the IC50 ([1]; mean) is reported as 5.21 µM, the IC50 ([2]; mean) is reported as 5.62 µM and the “24 hr Dox Inducible IL2FLGluc 293FRT/TO: IL2/PD1” value [2, 10] is reported as 1.1. For the same compound, the EC50 ([3]; Homo sapiens, NCI-H929, 48 h) was greater than 25 µM, the EC50 [4] was greater than 25 µM and the “Liver Microsome Stability (Multiple Species): Rat - % Remaining after 30 min w/NADPH” value [5] was 9.91%. For the same compound, the “Liver Microsome Stability (Multiple Species): Mouse - % Remaining after 30 min w/NADPH” value [6] was 37.6%, the “Liver Microsome Stability (Multiple Species): Human - % Remaining after 30 min w/NADPH” value [7] was 39.8% and the “Liver Microsome Stability (Multiple Species): Monkey - % Remaining after 30 min w/NADPH” value [8] was 5.63%.
In the case of `C#CCCCn1cccc1C(=O)Nc1nc([C@H]2CCCN2c2ccccc2)cs1` [Compound C31, (R)-1-(pent-4-yn-1-yl)-N-(4-(1-phenylpyrrolidin-2-yl)thiazol-2-yl)-1H-pyrrole-2-carboxamide], the IC50 ([1]; mean) is reported as 4.12 µM, the IC50 ([2]; mean) is reported as 7.05 µM and the “24 hr Dox Inducible IL2FLGluc 293FRT/TO: IL2/PD1” value [2, 10] is reported as 1.7. The EC50 ([3]; Homo sapiens, NCI-H929, 48 h) was greater than 25 µM, the EC50 [4] was greater than 25 µM and the “Liver Microsome Stability (Multiple Species): Rat - % Remaining after 30 min w/NADPH” value [5] was 5.84%. The “Liver Microsome Stability (Multiple Species): Mouse - % Remaining after 30 min w/NADPH” value [6] was 38.7%, the “Liver Microsome Stability (Multiple Species): Human - % Remaining after 30 min w/NADPH” value [7] was 53.4% and the “Liver Microsome Stability (Multiple Species): Monkey - % Remaining after 30 min w/NADPH” value [8] was 1.3%.
With `CO[C@@H](CC#N)Cn1cccc1C(=O)Nc1nc([C@H]2CCCN2c2ccccc2)cs1` [Compound C97, 1-((S)-3-cyano-2-methoxypropyl)-N-(4-((R)-1-phenylpyrrolidin-2-yl)thiazol-2-yl)-1H-pyrrole-2-carboxamide] the IC50 ([1]; mean) was 3 µM and 4.65 µM, the IC50 ([9]; 24 hr Dox induction, 293FRT/TO cells, mean, read-out: 24 hr Dox Inducible TNFaFLGluc 293FRT/TO: Mean IC50) was greater than 25 µM and the “24 hr Dox Inducible TNFaFLGluc 293FRT/TO: TNF/PD1” value ([9]; ratio of TNFaFLGluc IC50 to PD1ssGluc IC50, '<=>' given where both are I.A.) was > 8.34 and > 5.37. The “24 hr Dox Inducible IL2FLGluc 293FRT/TO: IL2/PD1” value [2, 10] was 2.1 and > 3.6, the EC50 ([3]; Homo sapiens, NCI-H929, 48 h) was 25 µM and the EC50 ([3]; 48 hr) was 23.6 µM. The EC50 [4] was greater than 25 µM, the “Liver Microsome Stability (Multiple Species): Rat - % Remaining after 30 min w/NADPH” value [5] was 5.97% and 7.43% and the “Liver Microsome Stability (Multiple Species): Mouse - % Remaining after 30 min w/NADPH” value [6] was 3.9% and 3.33%. The “Liver Microsome Stability (Multiple Species): Human - % Remaining after 30 min w/NADPH” value [7] was 4.81% and 6.52%.
